Structures are written as SMILES. “Also recorded” adds a separate entry of the source.

The values below come from US20110130437A1, “SALT FORMS OF A 6-FLUORO-1,2-DIHYDRO-2-OXO-3H-INDOL-3-YLIDENE DERIVATIVE, PROCESS FOR THEIR MANUFACTURE AND PHARMACEUTICAL COMPOSITIONS CONTAINING SAME” (BOEHRINGER INGELHEIM INTERNATIONAL GMBH, priority 2008, published 2011).

Common to all, as to type: physicochemical
Series [1] in a line: Thermal gravimetry (TG) loss of weight. Particulars: for loss of weight as measured by thermal gravimetry (TG): crystalline salt forms. Here is the method: The crystalline form of the monohydrochloride salt according to the invention is further characterised by a weight loss of ca. 1.6-1.8% water up to 130° C., as determined by Thermal […]). Under standard conditions, the monohydrochloride salt form of the compound according to the invention is present in the form of the hemihydrate, from which water escapes at a temperature of about 130° C. The TG diagram is also depicted in FIG. 1. For example, the sodium and tartrate salt forms have less good crystallinity properties, which affects the stability of the drug substance. […] Thus, the chloride, succinate and bromide salt forms have unexpectedly better crystalline properties for pharmaceutical development than the sodium and tartrate salt forms.

The nature of series [2]: Hygroscopicity of the salt forms. Particulars: for hygroscopicity: in words, judged from TG loss of weight. From the text:
The monohydrochloride salt form of the compound according to the invention, namely 4-[(Z)-[[4-[(dimethylamino)methyl]phenyl]amino](6-fluoro-1,2-dihydro-2-oxo-3H-indol-3-ylidene)methyl]-benzenepropanoic acid monohydrochloride, is a yellow crystalline powder with irregular shaped crystals. […] For example, the sodium and tartrate salt forms have less good crystallinity properties, which affects the stability of the drug substance. […] Thus, the chloride, succinate and bromide salt forms have unexpectedly better crystalline properties for pharmaceutical development than the sodium and tartrate salt forms.

Series [3] can be described thus: Solubility in aqueous media over the pH range. The following applies: over a wide pH-range. From the text:
(§1) Furthermore, although all the above mentioned salt forms are characterized by a low solubility over almost the whole pH range, the chloride salt form presents the advantage of a better dissolution rate.

The nature of series [4]: Intrinsic dissolution rate.
Source text: as §1

Series [5] in a line: Crystallinity after intensive milling or compression. From the text:
The monohydrochloride salt form of the compound according to the invention, namely 4-[(Z)-[[4-[(dimethylamino)methyl]phenyl]amino](6-fluoro-1,2-dihydro-2-oxo-3H-indol-3-ylidene)methyl]-benzenepropanoic acid monohydrochloride, is a yellow crystalline powder with irregular shaped crystals.

As for `CN(C)Cc1ccc(N/C(=C2\C(=O)Nc3cc(F)ccc32)c2ccc(CCC(=O)O)cc2)cc1` [bromide, 4-[(Z)-[[4-[(dimethylamino)methyl]phenyl]amino](6-fluoro-1,2-dihydro-2-oxo-3H-indol-3-ylidene)methyl]-benzenepropanoic acid], in series [1], the “loss of weight as measured by thermal gravimetry (TG)” value (shortened to “loss of weight as measured”) is “ca. 2.2%”. Moreover, in series [2], the hygroscopicity entry is listed as “slight hygroscopicity”. In series [3], the “solubility in aqueous media” value is listed as “rather low solubility”. The intrinsic dissolution rate result in series [4] is on record as “very slow”.
In the case of `CN(C)Cc1ccc(N/C(=C2\C(=O)Nc3cc(F)ccc32)c2ccc(CCC(=O)O)cc2)cc1.Cl` [monohydrochloride, 4-[(Z)-[[4-[(dimethylamino)methyl]phenyl]amino](6-fluoro-1,2-dihydro-2-oxo-3H-indol-3-ylidene)methyl]-benzenepropanoic acid monohydrochloride], in series [1], the “loss of weight as measured” value is on record as “ca. 1.7%”. Moreover, the “weight loss of water, determined by Thermal Gravimetry (TG)” value in series [1] (up to 130° C., crystalline form) is on record as 1.6-1.8%. In addition, the hygroscopicity result is listed as “slightly hygroscopic; also recorded: slight hygroscopicity” in series [2] (listed as monohydrochloride salt form, monohydrochloride) and “slight hygroscopicity” in series [2] (monohydrochloride). In series [2] (on moisture uptake (slightly hygroscopic)), the “change in crystal modification” value is reported as “no change in crystal modification is observed”. Further, the “solubility in aqueous media” value in series [3] was “rather low solubility”. In addition, the intrinsic dissolution rate result in series [4] is “acceptable fast”. Further, the change in crystallinity result in series [5] is given as “No significant change in crystallinity”.
Take `CN(C)Cc1ccc(N/C(=C2\C(=O)Nc3cc(F)ccc32)c2ccc(CCC(=O)O)cc2)cc1` [sodium, 4-[(Z)-[[4-[(dimethylamino)methyl]phenyl]amino](6-fluoro-1,2-dihydro-2-oxo-3H-indol-3-ylidene)methyl]-benzenepropanoic acid]: the “loss of weight as measured” value in series [1] was “ca. 15%”. Further, the hygroscopicity entry in series [2] is recorded as “strong hygroscopicity”.
As for `CN(C)Cc1ccc(N/C(=C2\C(=O)Nc3cc(F)ccc32)c2ccc(CCC(=O)O)cc2)cc1` [succinate, 4-[(Z)-[[4-[(dimethylamino)methyl]phenyl]amino](6-fluoro-1,2-dihydro-2-oxo-3H-indol-3-ylidene)methyl]-benzenepropanoic acid], the “loss of weight as measured” value in series [1] is listed as “ca. 1.5%”. Besides, in series [2], the hygroscopicity entry was “slight hygroscopicity”. In addition, the “solubility in aqueous media” value in series [3] is listed as “rather low solubility”. Also, the intrinsic dissolution rate entry in series [4] is reported as “very slow”.
For the compound `CN(C)Cc1ccc(N/C(=C2\C(=O)Nc3cc(F)ccc32)c2ccc(CCC(=O)O)cc2)cc1` [tartrate, 4-[(Z)-[[4-[(dimethylamino)methyl]phenyl]amino](6-fluoro-1,2-dihydro-2-oxo-3H-indol-3-ylidene)methyl]-benzenepropanoic acid], in series [1], the “loss of weight as measured” value is “ca. 4.3%”. Besides, in series [2], the hygroscopicity result is listed as “strong hygroscopicity”.
